Data taken from patent US20250270200A1, “CTPS1 INHIBITORS AND USES THEREOF” (Nimbus Clotho, Inc., priority 2022, published 2025).
Where “and” joins values, the source holds several entries; their conditions need not be identical. Identical values can stand only once. One block for each molecule: values may come before it.

Target: T1, human CTPS1 (Homo sapiens, UniProt P17812)
T1 sequence (P17812 1-591): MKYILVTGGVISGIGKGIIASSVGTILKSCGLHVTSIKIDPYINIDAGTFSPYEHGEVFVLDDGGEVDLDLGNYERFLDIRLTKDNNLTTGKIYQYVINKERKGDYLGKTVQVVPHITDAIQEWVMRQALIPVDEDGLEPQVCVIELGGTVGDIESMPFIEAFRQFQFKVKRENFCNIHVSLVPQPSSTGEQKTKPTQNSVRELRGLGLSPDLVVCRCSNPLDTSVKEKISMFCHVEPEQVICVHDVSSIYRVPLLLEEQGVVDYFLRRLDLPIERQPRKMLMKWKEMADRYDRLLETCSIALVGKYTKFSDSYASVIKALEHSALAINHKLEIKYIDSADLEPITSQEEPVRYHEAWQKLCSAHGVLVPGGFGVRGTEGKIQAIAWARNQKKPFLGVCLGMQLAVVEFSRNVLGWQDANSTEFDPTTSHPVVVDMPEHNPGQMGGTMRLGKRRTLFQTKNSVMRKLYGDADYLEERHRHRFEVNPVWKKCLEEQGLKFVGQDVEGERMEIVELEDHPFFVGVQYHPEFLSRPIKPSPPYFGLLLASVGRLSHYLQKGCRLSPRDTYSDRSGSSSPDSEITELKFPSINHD
Experiment: ADP-Glo assay, human CTPS1 enzyme inhibition
Format: biochemical
Conditions: wild-type human CTPS1, 25 nM enzyme; ADP-Glo; read-out: ADP-Glo_WT_hCTPS1—25 nM_IC50 (IC50)
Procedure, shortened: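 ADP-Glo luminescence quantified ADP produced by 25 nM purified human CTPS1 (full length, FLAG-His tagged) at 25° C within the linear phase. Final substrates: ATP 120 μM, UTP 160 μM, GTP 60 μM, L-glutamine 100 μM; 1% DMSO; pH 7.4 HEPES buffer with Mg2+, KCl, DTT. Compound pre-incubated with enzyme 10 min, then with ATP/UTP 10 min.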

Compound: CCOc1cncc(-c2cnc(C(=O)N[C@H](c3cc(NS(=O)(=O)C4CC4)ccn3)[C@@H]3CCN(C4CCCC4)C3)s2)n1 [I-94, N-((S)-((R)-1-cyclopentylpyrrolidin-3-yl)(4-(cyclopropanesulfonamido)pyridin-2-yl)methyl)-5-(6-ethoxypyrazin-2-yl)thiazole-2-carboxamide]
IC50: > 100 nM

Compound: CCOc1cncc(-c2cnc(C(=O)N[C@H](c3cc(NS(=O)(=O)C4CC4)ccn3)[C@H]3CN(C)CCO3)s2)n1 [I-97, N-((R)-(4-(cyclopropanesulfonamido)pyridin-2-yl)((R)-4-methylmorpholin-2-yl)methyl)-5-(6-ethoxypyrazin-2-yl)thiazole-2-carboxamide]
IC50: 25 to 50 nM and 5 to 25 nM

Compound: CCOc1cncc(-c2cnc(C(=O)N[C@@H](COC)c3nccc(NS(=O)(=O)C4CC4)n3)s2)n1 [I-98, (R)-N-(1-(4-(cyclopropanesulfonamido)pyrimidin-2-yl)-2-methoxyethyl)-5-(6-ethoxypyrazin-2-yl)thiazole-2-carboxamide]
IC50: 25 to 50 nM

Compound: CCOc1cncc(-c2cnc(C(=O)N[C@@H](C[C@H]3COCCN3C)c3cc(NS(=O)(=O)C4CC4)ccn3)s2)n1 [I-102, N-((S)-1-(4-(cyclopropanesulfonamido)pyridin-2-yl)-2-((S)-4-methylmorpholin-3-yl)ethyl)-5-(6-ethoxypyrazin-2-yl)thiazole-2-carboxamide]
IC50: 50 to 100 nM

Compound: CCOc1cncc(-c2cnc(C(=O)N[C@H](c3cc(NS(=O)(=O)C4CC4)ccn3)[C@H]3CCN(CCF)C3)s2)n1 [I-107, N-((S)-(4-(cyclopropanesulfonamido)pyridin-2-yl)((S)-1-(2-fluoroethyl)pyrrolidin-3-yl)methyl)-5-(6-ethoxypyrazin-2-yl)thiazole-2-carboxamide]
IC50: 50 to 100 nM

Compound: CCOc1cncc(-c2cnc(C(=O)N[C@H](c3cc(NS(=O)(=O)C4CC4)ccn3)[C@@H]3CCN(CCF)C3)s2)n1 [I-108, N-((S)-(4-(cyclopropanesulfonamido)pyridin-2-yl)((R)-1-(2-fluoroethyl)pyrrolidin-3-yl)methyl)-5-(6-ethoxypyrazin-2-yl)thiazole-2-carboxamide]
IC50: 5 to 25 nM

Compound: CCOc1cncc(-c2cnc(C(=O)N[C@@H](c3cc(NS(=O)(=O)C4CC4)ccn3)[C@@H]3CCN(CCF)C3)s2)n1 [I-109, N-((R)-(4-(cyclopropanesulfonamido)pyridin-2-yl)((R)-1-(2-fluoroethyl)pyrrolidin-3-yl)methyl)-5-(6-ethoxypyrazin-2-yl)thiazole-2-carboxamide]
IC50: 5 to 25 nM

Compound: CCOc1cncc(-c2cnc(C(=O)N[C@H](c3cc(NS(=O)(=O)C4CC4)ccn3)[C@H]3CCN(C4CC4)C3)s2)n1 [I-112, N-((S)-(4-(cyclopropanesulfonamido)pyridin-2-yl)((S)-1-cyclopropylpyrrolidin-3-yl)methyl)-5-(6-ethoxypyrazin-2-yl)thiazole-2-carboxamide]
IC50: 5 to 25 nM

Compound: CCOc1cncc(-c2cnc(C(=O)N[C@H](c3cc(NS(=O)(=O)C4CC4)ccn3)[C@@H]3CCN(C4CC4)C3)s2)n1 [I-113, N-((S)-(4-(cyclopropanesulfonamido)pyridin-2-yl)((R)-1-cyclopropylpyrrolidin-3-yl)methyl)-5-(6-ethoxypyrazin-2-yl)thiazole-2-carboxamide]
IC50: 5 to 25 nM

Compound: CCOc1cncc(-c2cnc(C(=O)N[C@@H](c3cc(NS(=O)(=O)C4CC4)ccn3)[C@@H]3CCN(C4CC4)C3)s2)n1 [I-114, N-((R)-(4-(cyclopropanesulfonamido)pyridin-2-yl)((R)-1-cyclopropylpyrrolidin-3-yl)methyl)-5-(6-ethoxypyrazin-2-yl)thiazole-2-carboxamide]
IC50: 5 to 25 nM

Compound: CCOc1cncc(-c2cnc(C(=O)N[C@H](c3cc(NS(=O)(=O)C4CC4)ccn3)[C@@H]3CCCN3C)s2)n1 [I-115, N-((S)-(4-(cyclopropanesulfonamido)pyridin-2-yl)((S)-1-methylpyrrolidin-2-yl)methyl)-5-(6-ethoxypyrazin-2-yl)thiazole-2-carboxamide]
IC50: 50 to 100 nM

Compound: CCOc1cncc(-c2cnc(C(=O)N[C@H](c3cc(NS(=O)(=O)C4CC4)ccn3)[C@H]3CCCN3C)s2)n1 [I-116, N-((S)-(4-(cyclopropanesulfonamido)pyridin-2-yl)((R)-1-methylpyrrolidin-2-yl)methyl)-5-(6-ethoxypyrazin-2-yl)thiazole-2-carboxamide]
IC50: 25 to 50 nM

Compound: CCOc1cncc(-c2cnc(C(=O)N[C@@H](c3cc(NS(=O)(=O)C4CC4)ccn3)[C@@H]3CCCN3C)s2)n1 [I-117, N-((R)-(4-(cyclopropanesulfonamido)pyridin-2-yl)((S)-1-methylpyrrolidin-2-yl)methyl)-5-(6-ethoxypyrazin-2-yl)thiazole-2-carboxamide]
IC50: 5 to 25 nM

More lines, now with the values ahead:

IC50: 5 to 25 nM
Compound: CCOc1cncc(-c2cnc(C(=O)N[C@@H](c3cc(NS(=O)(=O)C4CC4)ccn3)[C@@H]3CCN(C4CCCC4)C3)s2)n1 [I-95, N-((R)-((R)-1-cyclopentylpyrrolidin-3-yl)(4-(cyclopropanesulfonamido)pyridin-2-yl)methyl)-5-(6-ethoxypyrazin-2-yl)thiazole-2-carboxamide]

IC50: 5 to 25 nM
Compound: CCOc1cncc(-c2cnc(C(=O)N[C@@H](c3cc(NS(=O)(=O)C4CC4)ccn3)[C@H]3CCN(C4CCCC4)C3)s2)n1 [I-96, N-((R)-((S)-1-cyclopentylpyrrolidin-3-yl)(4-(cyclopropanesulfonamido)pyridin-2-yl)methyl)-5-(6-ethoxypyrazin-2-yl)thiazole-2-carboxamide]

IC50: 5 to 25 nM
Compound: CCOc1cncc(-c2cnc(C(=O)N[C@H](c3cc(NS(=O)(=O)C4CC4)ccn3)[C@@H]3CN(C)CCO3)s2)n1 [I-99, N-((R)-(4-(cyclopropanesulfonamido)pyridin-2-yl)((S)-4-methylmorpholin-2-yl)methyl)-5-(6-ethoxypyrazin-2-yl)thiazole-2-carboxamide]

IC50: 5 to 25 nM
Compound: CCOc1cncc(-c2cnc(C(=O)N[C@@H](c3cc(NS(=O)(=O)C4CC4)ccn3)[C@H]3CN(C)CCO3)s2)n1 [I-100, N-((S)-(4-(cyclopropanesulfonamido)pyridin-2-yl)((R)-4-methylmorpholin-2-yl)methyl)-5-(6-ethoxypyrazin-2-yl)thiazole-2-carboxamide]

IC50: 5 to 25 nM
Compound: CCOc1cncc(-c2cnc(C(=O)N[C@@H](c3cc(NS(=O)(=O)C4CC4)ccn3)[C@@H]3CN(C)CCO3)s2)n1 [I-101, N-((S)-(4-(cyclopropanesulfonamido)pyridin-2-yl)((S)-4-methylmorpholin-2-yl)methyl)-5-(6-ethoxypyrazin-2-yl)thiazole-2-carboxamide]

IC50: ≤ 5 nM
Compound: CCOc1cncc(-c2cnc(C(=O)N[C@H](C[C@H]3COCCN3C)c3cc(NS(=O)(=O)C4CC4)ccn3)s2)n1 [I-104, N-((R)-1-(4-(cyclopropanesulfonamido)pyridin-2-yl)-2-((S)-4-methylmorpholin-3-yl)ethyl)-5-(6-ethoxypyrazin-2-yl)thiazole-2-carboxamide]

IC50: ≤ 5 nM
Compound: CCOc1cncc(-c2cnc(C(=O)N[C@@H](c3cc(NS(=O)(=O)C4CC4)ccn3)[C@H]3CCN(CCF)C3)s2)n1 [I-110, N-((R)-(4-(cyclopropanesulfonamido)pyridin-2-yl)((S)-1-(2-fluoroethyl)pyrrolidin-3-yl)methyl)-5-(6-ethoxypyrazin-2-yl)thiazole-2-carboxamide]
